What was measured:
[1] = system: rabbit serum obtained by immunizing a rabbit with the SARS-CoV strain Frankfurt 1; assay type: binding; parameters: Binding of a rabbit serum to linear peptides / Binding of a rabbit serum to looped peptides / Rabbit serum linear peptides / Rabbit serum looped peptides / Binding of a rabbit serum to linear peptides of protein N of SARS-CoV Urbani (Rabbit serum linear peptides) / Binding of a rabbit serum to looped/cyclic peptides of protein N of SARS-CoV Urbani (Rabbit serum looped peptides): unit not given here
[2] = system: antibodies in sera from SARS patients (sera 1a, 1b, 2, 6, 37, 62, London, SARS-yellow, SARS-green); assay type: binding, human; parameters: Binding of serum 6 to linear peptides of protein X1 of SARS-CoV Urbani / Binding of serum 37 to linear peptides of protein X1 of SARS-CoV Urbani / Binding of serum 6 to looped/cyclic peptide (PEPSCAN-ELISA) / Binding of serum 37 to looped/cyclic peptide (PEPSCAN-ELISA) / Binding of serum 37 to looped/cyclic peptides of protein X1 of SARS-CoV Urbani / Binding of serum 6 to linear peptides of protein X2 / Binding of serum 37 to linear peptides of protein X2 / Binding of serum 37 to looped/cyclic peptides of protein X2 of SARS-CoV Urbani / Binding of serum 6 to linear peptides of protein M of SARS-CoV Urbani / Binding of serum 37 to linear peptides of protein M of SARS-CoV Urbani / Binding of serum 6 to looped/cyclic peptides of protein M of SARS-CoV Urbani / Binding of serum 37 to looped/cyclic peptides of protein M of SARS-CoV Urbani / Binding of serum 6 to linear peptides of protein X3 of SARS-CoV Urbani / Binding of serum 37 to linear peptides of protein X3 of SARS-CoV Urbani / Binding of serum 37 to looped/cyclic peptides of protein X3 of SARS-CoV Urbani / Binding of serum 6 to linear peptides of protein X4 of SARS-CoV Urbani / Binding of serum 37 to linear peptides of protein X4 of SARS-CoV Urbani / Binding of serum 37 to looped/cyclic peptides of protein X4 of SARS-CoV Urbani / Binding of serum 6 to linear peptides of protein X5 of SARS-CoV Urbani / Binding of serum 37 to linear peptides of protein X5 of SARS-CoV Urbani / Binding of serum 37 to looped/cyclic peptides of protein X5 of SARS-CoV Urbani / Binding of serum 6 to linear peptides of protein N of SARS-CoV Urbani / Binding of serum 37 to linear peptides of protein N of SARS-CoV Urbani / Binding of serum 6 to linear peptide (PEPSCAN-ELISA) / Binding of serum 1a to looped/cyclic peptides of protein N of SARS-CoV Urbani / Binding of serum 1b to looped/cyclic peptides of protein N of SARS-CoV Urbani / Binding of serum 2 to looped/cyclic peptides of protein N of SARS-CoV Urbani / Binding of serum 6 to looped/cyclic peptides of protein N of SARS-CoV Urbani / Binding of serum 37 to looped/cyclic peptides of protein N of SARS-CoV Urbani / Binding of serum 62 to looped/cyclic peptides of protein N of SARS-CoV Urbani / Binding of serum London to looped/cyclic peptides of protein N of SARS-CoV Urbani / Binding of serum SARS-green to looped/cyclic peptides of protein N of SARS-CoV Urbani: unit not given here
[3] = system: control sera (pooled serum of ten healthy LUMC hospital workers; commercial negative donor pooled serum from the Dutch bloodbank); assay type: binding, human; parameters: Binding of Control serum LUMC to linear peptides / Binding of Control serum Blood-bank to linear peptides / Binding of Control serum LUMC to looped peptides / Binding of Control Serum Blood-Bank to Looped peptides / Binding of Control serum LUMC to linear peptides of the protein M of SARS-CoV Urbani / Binding of Control serum Blood-bank to linear peptides of the protein M of SARS-CoV Urbani / Binding of Control serum LUMC to looped peptides of the protein M of SARS-CoV Urbani / Binding of Control Serum Blood-Bank to Looped peptides of the protein M of SARS-CoV Urbani: unit not given here

Sequence: RVGTDSGFAAYNRYR
- Rabbit serum linear peptides [1]: 0.0
- Rabbit serum looped peptides [1]: 0.3
- Binding of serum 1a to linear peptides of protein M of SARS-CoV Urbani [2]: 0.7
- Binding of serum 1a to looped/cyclic peptides of protein M of SARS-CoV Urbani [2]: 0.8
- Binding of serum 1b to linear peptides of protein M of SARS-CoV Urbani [2]: 0.1
- Binding of serum 1b to looped/cyclic peptides of protein M of SARS-CoV Urbani [2]: 0.5
- Binding of serum 2 to linear peptides of protein M of SARS-CoV Urbani [2]: 0.5
- Binding of serum 2 to looped/cyclic peptides of protein M of SARS-CoV Urbani [2]: 0.6
- Binding of serum 6 to linear peptides of protein M of SARS-CoV Urbani [2]: 0.5
- Binding of serum 6 to looped/cyclic peptides of protein M of SARS-CoV Urbani [2]: 1.4
- Binding of serum 37 to linear peptides of protein M of SARS-CoV Urbani [2]: 0.6
- Binding of serum 37 to looped/cyclic peptides of protein M of SARS-CoV Urbani [2]: 0.7
- Binding of serum 62 to linear peptides of protein M of SARS-CoV Urbani [2]: 0.2
- Binding of serum 62 to looped/cyclic peptides of protein M of SARS-CoV Urbani [2]: 0.6
- Binding of serum London to linear peptides of protein M of SARS-CoV Urbani [2]: 0.3
- Binding of serum London to looped/cyclic peptides of protein M of SARS-CoV Urbani [2]: 0.4
- Binding of serum SARS-green to linear peptides of protein M of SARS-CoV Urbani [2]: 0.5
- Binding of serum SARS-green to looped/cyclic peptides of protein M of SARS-CoV Urbani [2]: 0.3
- Binding of serum SARS-yellow to linear peptides of protein M of SARS-CoV Urbani [2]: 0.3
- Binding of serum SARS-yellow to looped/cyclic peptides of protein M of SARS-CoV Urbani [2]: 0.5
- Binding of Control Serum Blood-Bank to Looped peptides of the protein M of SARS-CoV Urbani [3]: 0.5
- Binding of Control serum Blood-bank to linear peptides of the protein M of SARS-CoV Urbani [3]: 0.7
- Binding of Control serum LUMC to linear peptides of the protein M of SARS-CoV Urbani [3]: 0.4
- Binding of Control serum LUMC to looped peptides of the protein M of SARS-CoV Urbani [3]: 0.6

Sequence: VIGFLFLAWIMLLQF
- Rabbit serum linear peptides [1]: 0.3
- Rabbit serum looped peptides [1]: 0.3
- Binding of serum 1a to linear peptides of protein M of SARS-CoV Urbani [2]: 0.7
- Binding of serum 1a to looped/cyclic peptides of protein M of SARS-CoV Urbani [2]: 0.7
- Binding of serum 1b to linear peptides of protein M of SARS-CoV Urbani [2]: 0.4
- Binding of serum 1b to looped/cyclic peptides of protein M of SARS-CoV Urbani [2]: 0.4
- Binding of serum 2 to linear peptides of protein M of SARS-CoV Urbani [2]: 0.4
- Binding of serum 2 to looped/cyclic peptides of protein M of SARS-CoV Urbani [2]: 0.5
- Binding of serum 6 to linear peptides of protein M of SARS-CoV Urbani [2]: 0.3
- Binding of serum 6 to looped/cyclic peptides of protein M of SARS-CoV Urbani [2]: 0.5
- Binding of serum 37 to linear peptides of protein M of SARS-CoV Urbani [2]: 0.7
- Binding of serum 37 to looped/cyclic peptides of protein M of SARS-CoV Urbani [2]: 0.5
- Binding of serum 62 to linear peptides of protein M of SARS-CoV Urbani [2]: 0.7
- Binding of serum 62 to looped/cyclic peptides of protein M of SARS-CoV Urbani [2]: 0.7
- Binding of serum London to linear peptides of protein M of SARS-CoV Urbani [2]: 0.3
- Binding of serum London to looped/cyclic peptides of protein M of SARS-CoV Urbani [2]: 0.2
- Binding of serum SARS-green to linear peptides of protein M of SARS-CoV Urbani [2]: 0.2
- Binding of serum SARS-green to looped/cyclic peptides of protein M of SARS-CoV Urbani [2]: 0.3
- Binding of serum SARS-yellow to linear peptides of protein M of SARS-CoV Urbani [2]: 0.0
- Binding of serum SARS-yellow to looped/cyclic peptides of protein M of SARS-CoV Urbani [2]: 0.6
- Binding of Control Serum Blood-Bank to Looped peptides of the protein M of SARS-CoV Urbani [3]: 0.7
- Binding of Control serum Blood-bank to linear peptides of the protein M of SARS-CoV Urbani [3]: 0.5
- Binding of Control serum LUMC to linear peptides of the protein M of SARS-CoV Urbani [3]: 0.3
- Binding of Control serum LUMC to looped peptides of the protein M of SARS-CoV Urbani [3]: 0.7

Sequence: VLKMLHSSSLTSLLK
- Binding of a rabbit serum to linear peptides [1]: 0.2
- Binding of a rabbit serum to looped peptides [1]: 0.3
- Binding of serum 1a to linear peptides of protein X2 [2]: 0.6
- Binding of serum 1a to looped/cyclic peptides of protein X2 of SARS-CoV Urbani [2]: 0.4
- Binding of serum 1b to linear peptides of protein X2 [2]: 0.5
- Binding of serum 1b to looped/cyclic peptides of protein X2 of SARS-CoV Urbani [2]: 0.2
- Binding of serum 2 to linear peptides of protein X2 [2]: 0.5
- Binding of serum 2 to looped/cyclic peptides of protein X2 of SARS-CoV Urbani [2]: 0.1
- Binding of serum 6 to linear peptides of protein X2 [2]: 0.5
- Binding of serum 6 to looped/cyclic peptides of protein X2 of SARS-CoV Urbani [2]: 0.1
- Binding of serum 37 to linear peptides of protein X2 [2]: 0.5
- Binding of serum 37 to looped/cyclic peptides of protein X2 of SARS-CoV Urbani [2]: 0.2
- Binding of serum 62 to linear peptides of protein X2 [2]: 0.6
- Binding of serum 62 to looped/cyclic peptides of protein X2 of SARS-CoV Urbani [2]: 0.4
- Binding of serum London to linear peptides of protein X2 [2]: 0.4
- Binding of serum London to looped/cyclic peptides of protein X2 of SARS-CoV Urbani [2]: 0.1
- Binding of serum SARS-green to linear peptides of protein X2 [2]: 0.5
- Binding of serum SARS-green to looped/cyclic peptides of protein X2 of SARS-CoV Urbani [2]: 0.2
- Binding of serum SARS-yellow to linear peptides of protein X2 [2]: 0.5
- Binding of serum SARS-yellow to looped/cyclic peptides of protein X2 of SARS-CoV Urbani [2]: 0.2
- Binding of Control Serum Blood-Bank to Looped peptides [3]: 0.5
- Binding of Control serum Blood-bank to linear peptides [3]: 0.7
- Binding of Control serum LUMC to linear peptides [3]: 0.4
- Binding of Control serum LUMC to looped peptides [3]: 0.3

Sequence: LMWLSYFVASFRLFA
- Rabbit serum linear peptides [1]: 0.0
- Rabbit serum looped peptides [1]: 0.3
- Binding of serum 1a to linear peptides of protein M of SARS-CoV Urbani [2]: 0.6
- Binding of serum 1b to linear peptides of protein M of SARS-CoV Urbani [2]: 0.4
- Binding of serum 2 to linear peptides of protein M of SARS-CoV Urbani [2]: 0.4
- Binding of serum 6 to linear peptides of protein M of SARS-CoV Urbani [2]: 0.3
- Binding of serum 37 to linear peptides of protein M of SARS-CoV Urbani [2]: 0.3
- Binding of serum 62 to linear peptides of protein M of SARS-CoV Urbani [2]: 0.4
- Binding of serum London to linear peptides of protein M of SARS-CoV Urbani [2]: 0.3
- Binding of serum SARS-green to linear peptides of protein M of SARS-CoV Urbani [2]: 0.5
- Binding of serum SARS-yellow to linear peptides of protein M of SARS-CoV Urbani [2]: 0.1
- Recognition of the peptide by sera of SARS-CoV infected individuals, and form (linear, looped/cyclic) in which it is recognized [2]: recognized in looped/cyclic form
- Binding of Control Serum Blood-Bank to Looped peptides of the protein M of SARS-CoV Urbani [3]: 0.6
- Binding of Control serum Blood-bank to linear peptides of the protein M of SARS-CoV Urbani [3]: 0.5
- Binding of Control serum LUMC to linear peptides of the protein M of SARS-CoV Urbani [3]: 0.4
- Binding of Control serum LUMC to looped peptides of the protein M of SARS-CoV Urbani [3]: 0.6

Sequence: NRYRIGNYKLNTDHA
- Rabbit serum linear peptides [1]: 0.2
- Rabbit serum looped peptides [1]: 0.3
- Binding of serum 1a to linear peptides of protein M of SARS-CoV Urbani [2]: 0.8
- Binding of serum 1a to looped/cyclic peptides of protein M of SARS-CoV Urbani [2]: 0.8
- Binding of serum 1b to linear peptides of protein M of SARS-CoV Urbani [2]: 0.6
- Binding of serum 1b to looped/cyclic peptides of protein M of SARS-CoV Urbani [2]: 0.6
- Binding of serum 2 to linear peptides of protein M of SARS-CoV Urbani [2]: 0.5
- Binding of serum 2 to looped/cyclic peptides of protein M of SARS-CoV Urbani [2]: 0.5
- Binding of serum 6 to linear peptides of protein M of SARS-CoV Urbani [2]: 0.3
- Binding of serum 6 to looped/cyclic peptides of protein M of SARS-CoV Urbani [2]: 0.7
- Binding of serum 37 to linear peptides of protein M of SARS-CoV Urbani [2]: 0.5
- Binding of serum 37 to looped/cyclic peptides of protein M of SARS-CoV Urbani [2]: 0.6
- Binding of serum 62 to linear peptides of protein M of SARS-CoV Urbani [2]: 0.6
- Binding of serum 62 to looped/cyclic peptides of protein M of SARS-CoV Urbani [2]: 0.5
- Binding of serum London to linear peptides of protein M of SARS-CoV Urbani [2]: 0.2
- Binding of serum London to looped/cyclic peptides of protein M of SARS-CoV Urbani [2]: 0.4
- Binding of serum SARS-green to linear peptides of protein M of SARS-CoV Urbani [2]: 0.2
- Binding of serum SARS-green to looped/cyclic peptides of protein M of SARS-CoV Urbani [2]: 0.3
- Binding of serum SARS-yellow to linear peptides of protein M of SARS-CoV Urbani [2]: 0.1
- Binding of serum SARS-yellow to looped/cyclic peptides of protein M of SARS-CoV Urbani [2]: 0.9
- Binding of Control Serum Blood-Bank to Looped peptides of the protein M of SARS-CoV Urbani [3]: 0.7
- Binding of Control serum Blood-bank to linear peptides of the protein M of SARS-CoV Urbani [3]: 0.2
- Binding of Control serum LUMC to linear peptides of the protein M of SARS-CoV Urbani [3]: 0.2
- Binding of Control serum LUMC to looped peptides of the protein M of SARS-CoV Urbani [3]: 0.7
